Assay results published in the NIST ThermoML archive (doi:10.1016/j.tca.2012.05.025).

Experiment: xn = mol fraction of the nth substance listed
Settings: for surface tension liquid-gas: roughened platinum plate-detachment; for viscosity / mass density: 101 kPa, Liquid; for viscosity: Capillary tube (Ostwald / Ubbelohde) method; for mass density: Vibrating tube method

CN(C)CCCO [3-dimethylamino-1-propanol] + O
Settings | mass density [kg/m3] | surface tension liquid-gas [mN/m] | viscosity [mPa·s]
298.15 K, x1 = 0.0979 | – | 36.93 | –
298.15 K, x1 = 0.1002 | 978.93 | – | 6.617
298.15 K, x1 = 0.1971 | – | 35.21 | –
298.15 K, x1 = 0.201 | 960.36 | – | 14
298.15 K, x1 = 0.2927 | – | 33.39 | –
298.15 K, x1 = 0.297 | 943.21 | – | 19.6
298.15 K, x1 = 0.3979 | – | 32.02 | –
298.15 K, x1 = 0.4001 | 929.16 | – | 20.8
298.15 K, x1 = 0.4996 | – | 31.04 | –
298.15 K, x1 = 0.5013 | 917.07 | – | 19.5
298.15 K, x1 = 0.5975 | – | 30.56 | –
298.15 K, x1 = 0.6019 | 907.19 | – | 15.1
298.15 K, x1 = 0.6939 | 899.28 | – | 12.3
298.15 K, x1 = 0.6998 | – | 29.87 | –
298.15 K, x1 = 0.7946 | – | 29.33 | –
298.15 K, x1 = 0.8006 | 891.51 | – | 9.402
298.15 K, x1 = 0.8989 | 885.51 | – | 7.474
298.15 K, x1 = 0.8997 | – | 28.22 | –
298.15 K, x1 = 1 | 880.25 | 29.01 | 5.839
303.15 K, x1 = 0.0979 | – | 34.56 | –
303.15 K, x1 = 0.1002 | 975.53 | – | 5.319
303.15 K, x1 = 0.1971 | – | 34.17 | –
303.15 K, x1 = 0.201 | 956.53 | – | 10.8
303.15 K, x1 = 0.2927 | – | 31.4 | –
303.15 K, x1 = 0.297 | 939.37 | – | 14.4
303.15 K, x1 = 0.3979 | – | 31.61 | –
303.15 K, x1 = 0.4001 | 925.16 | – | 15.9
303.15 K, x1 = 0.4996 | – | 30.59 | –
303.15 K, x1 = 0.5013 | 913.1 | – | 15.6
303.15 K, x1 = 0.5975 | – | 29.91 | –
303.15 K, x1 = 0.6019 | 903.25 | – | 11.9
303.15 K, x1 = 0.6939 | 895.35 | – | 9.94
303.15 K, x1 = 0.6998 | – | 29.34 | –
303.15 K, x1 = 0.7946 | – | 28.87 | –
303.15 K, x1 = 0.8006 | 887.57 | – | 7.954
303.15 K, x1 = 0.8989 | 881.52 | – | 6.226
303.15 K, x1 = 0.8997 | – | 27.64 | –
303.15 K, x1 = 1 | 876.46 | 29.28 | 4.963
308.15 K, x1 = 0.0979 | – | 32.51 | –
308.15 K, x1 = 0.1971 | – | 32.13 | –
308.15 K, x1 = 0.2927 | – | 30.61 | –
308.15 K, x1 = 0.3979 | – | 30.51 | –
308.15 K, x1 = 0.4996 | – | 30.2 | –
308.15 K, x1 = 0.5975 | – | 29.3 | –
308.15 K, x1 = 0.6998 | – | 28.72 | –
308.15 K, x1 = 0.7946 | – | 28.45 | –
308.15 K, x1 = 0.8997 | – | 26.42 | –
308.15 K, x1 = 1 | – | 28.88 | –
313.15 K, x1 = 0.0979 | – | 32.02 | –
313.15 K, x1 = 0.1002 | 968.53 | – | 3.808
313.15 K, x1 = 0.1971 | – | 31.26 | –
313.15 K, x1 = 0.201 | 948.48 | – | 7.433
313.15 K, x1 = 0.2927 | – | 29.79 | –
313.15 K, x1 = 0.297 | 931.17 | – | 10.2
313.15 K, x1 = 0.3979 | – | 30.12 | –
313.15 K, x1 = 0.4001 | 916.99 | – | 11
313.15 K, x1 = 0.4996 | – | 29.33 | –
313.15 K, x1 = 0.5013 | 905.01 | – | 10.7
313.15 K, x1 = 0.5975 | – | 28.76 | –
313.15 K, x1 = 0.6019 | 895.21 | – | 8.899
313.15 K, x1 = 0.6939 | 887.38 | – | 7.649
313.15 K, x1 = 0.6998 | – | 28.23 | –
313.15 K, x1 = 0.7946 | – | 27.82 | –
313.15 K, x1 = 0.8006 | 879.6 | – | 6.319
313.15 K, x1 = 0.8989 | 873.52 | – | 5.192
313.15 K, x1 = 0.8997 | – | 26.23 | –
313.15 K, x1 = 1 | 868.42 | 28.47 | 4.266
318.15 K, x1 = 0.0979 | – | 30.72 | –
318.15 K, x1 = 0.1971 | – | 29.83 | –
318.15 K, x1 = 0.2927 | – | 28.55 | –
318.15 K, x1 = 0.3979 | – | 29.78 | –
318.15 K, x1 = 0.4996 | – | 28.69 | –
318.15 K, x1 = 0.5975 | – | 28.51 | –
318.15 K, x1 = 0.6998 | – | 27.87 | –
318.15 K, x1 = 0.7946 | – | 27.54 | –
318.15 K, x1 = 0.8997 | – | 25.6 | –
318.15 K, x1 = 1 | – | 28.13 | –
323.15 K, x1 = 0.0979 | – | 28.2 | –
323.15 K, x1 = 0.1002 | 961.28 | – | 2.743
323.15 K, x1 = 0.1971 | – | 29.54 | –
323.15 K, x1 = 0.201 | 940.25 | – | 4.975
323.15 K, x1 = 0.2927 | – | 28.28 | –
323.15 K, x1 = 0.297 | 922.77 | – | 6.606
323.15 K, x1 = 0.3979 | – | 28.91 | –
323.15 K, x1 = 0.4001 | 908.62 | – | 7.162
323.15 K, x1 = 0.4996 | – | 28.65 | –
323.15 K, x1 = 0.5013 | 896.72 | – | 7.031
323.15 K, x1 = 0.5975 | – | 27.57 | –
323.15 K, x1 = 0.6019 | 887.02 | – | 6.036
323.15 K, x1 = 0.6939 | 879.25 | – | 5.28
323.15 K, x1 = 0.6998 | – | 27.36 | –
323.15 K, x1 = 0.7946 | – | 27.1 | –
323.15 K, x1 = 0.8006 | 871.47 | – | 4.526
323.15 K, x1 = 0.8989 | 865.41 | – | 3.848
323.15 K, x1 = 0.8997 | – | 25.43 | –
323.15 K, x1 = 1 | 860.29 | 27.63 | 3.253
333.15 K, x1 = 0.0979 | – | 26.75 | –
333.15 K, x1 = 0.1002 | 953.71 | – | 2.169
333.15 K, x1 = 0.1971 | – | 28.32 | –
333.15 K, x1 = 0.201 | 931.78 | – | 3.514
333.15 K, x1 = 0.2927 | – | 27.56 | –
333.15 K, x1 = 0.297 | 914.15 | – | 4.536
333.15 K, x1 = 0.3979 | – | 27.91 | –
333.15 K, x1 = 0.4001 | 900.04 | – | 4.707
333.15 K, x1 = 0.4996 | – | 27.54 | –
333.15 K, x1 = 0.5013 | 888.25 | – | 4.797
333.15 K, x1 = 0.5975 | – | 26.74 | –
333.15 K, x1 = 0.6019 | 878.64 | – | 4.286
333.15 K, x1 = 0.6939 | 870.93 | – | 3.831
333.15 K, x1 = 0.6998 | – | 26.36 | –
333.15 K, x1 = 0.7946 | – | 26.32 | –
333.15 K, x1 = 0.8006 | 863.22 | – | 3.369
333.15 K, x1 = 0.8989 | 857.19 | – | 2.94
333.15 K, x1 = 0.8997 | – | 24.76 | –
333.15 K, x1 = 1 | 852.1 | 26.81 | 2.768
343.15 K, x1 = 0.1002 | 945.85 | – | 1.686
343.15 K, x1 = 0.201 | 923.1 | – | 2.575
343.15 K, x1 = 0.297 | 905.31 | – | 3.262
343.15 K, x1 = 0.4001 | 891.27 | – | 3.498
343.15 K, x1 = 0.5013 | 879.56 | – | 3.428
343.15 K, x1 = 0.6019 | 870.06 | – | 3.147
343.15 K, x1 = 0.6939 | 862.44 | – | 2.861
343.15 K, x1 = 0.8006 | 854.81 | – | 2.579
343.15 K, x1 = 0.8989 | 848.84 | – | 2.322
343.15 K, x1 = 1 | 843.77 | – | 2.03
